Reference: patent US20250282785A1, “PYRROLIDINONE DERIVATIVES AS INHIBITORS OF NF KAPPA B INDUCING KINASE” (priority 2022, published 2025)

Experiments:
[1] = tested on: p-IKKα levels in L363 (NIK translocated multiple myeloma) cells; assay: Effect of compounds on p-IKKα levels in L363 cells (AlphaLISA SureFire Ultra); assay type: cell-based; settings: Homo sapiens, L-363; L363 cells, BAFF stimulated, MG132, 6 h; average of values; read-out: Assay 2 IC50
In short: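 Phospho-IKKα (Ser 176/180) was quantified by AlphaLISA in lysed L363 cells after 6 h compound exposure (0.3% DMSO, 11 points, 1:3) alongside 250 ng/ml BAFF and 10 uM MG132, following overnight BAFF priming in low-serum DMEM. Duplicate curves were scaled between BAFF/DMSO/MG132 and unstimulated DMSO wells, then fitted sigmoidally for IC50.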

[2] = target: Recombinant Human NF-Kappab-Inducing Kinase (NIK/MAP3K14) (Homo sapiens, UniProt Q99558); assay: Inhibition of auto-phosphorylation of recombinant human NIK/MAP3K14 (AlphaScreen); assay type: biochemical; settings: NIK/MAP3K14 auto-phosphorylation, 5 microM ATP, 1 nM enzyme, 2 h at 25° C.; average of values; read-out: Assay 1 IC50
In short: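 AlphaScreen read-out used anti-phospho-IKK Ser176/180 antibody after 2 h, 25 °C incubation of compound, 1 nM GST-NIK and 5 µM ATP (final DMSO 0.7%). Percent inhibition referenced to high (enzyme) and low (no enzyme, no ATP) controls; sigmoidal curve fitting gave IC50.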

Recombinant Human NF-Kappab-Inducing Kinase (NIK/MAP3K14), sequence (Q99558 whole entry): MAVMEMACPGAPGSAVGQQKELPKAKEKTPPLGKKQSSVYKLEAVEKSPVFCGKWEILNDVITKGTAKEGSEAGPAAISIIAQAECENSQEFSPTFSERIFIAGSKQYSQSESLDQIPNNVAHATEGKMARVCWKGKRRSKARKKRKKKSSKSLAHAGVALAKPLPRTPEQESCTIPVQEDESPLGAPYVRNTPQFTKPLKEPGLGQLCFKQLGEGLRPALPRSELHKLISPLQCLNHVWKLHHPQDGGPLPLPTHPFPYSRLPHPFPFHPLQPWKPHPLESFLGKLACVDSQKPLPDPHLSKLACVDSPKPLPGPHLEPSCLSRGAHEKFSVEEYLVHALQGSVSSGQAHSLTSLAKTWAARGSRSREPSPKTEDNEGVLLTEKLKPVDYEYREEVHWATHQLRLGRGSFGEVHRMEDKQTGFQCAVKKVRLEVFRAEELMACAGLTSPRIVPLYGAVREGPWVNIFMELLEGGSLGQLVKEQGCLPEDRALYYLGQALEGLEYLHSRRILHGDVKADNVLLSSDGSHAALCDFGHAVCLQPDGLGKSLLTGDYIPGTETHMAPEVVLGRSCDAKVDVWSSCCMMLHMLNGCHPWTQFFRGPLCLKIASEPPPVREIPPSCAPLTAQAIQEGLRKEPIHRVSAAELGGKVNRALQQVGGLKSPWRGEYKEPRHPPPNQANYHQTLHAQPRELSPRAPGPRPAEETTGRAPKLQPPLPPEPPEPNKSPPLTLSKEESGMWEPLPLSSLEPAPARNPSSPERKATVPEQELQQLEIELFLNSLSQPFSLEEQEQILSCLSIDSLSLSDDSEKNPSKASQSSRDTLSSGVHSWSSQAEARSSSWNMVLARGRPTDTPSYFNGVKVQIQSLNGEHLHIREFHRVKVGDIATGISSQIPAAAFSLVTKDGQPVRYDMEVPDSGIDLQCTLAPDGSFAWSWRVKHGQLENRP

SMILES	IC50 [1]	IC50 [2]
COc1cn(C)nc1Nc1cnc(-c2cccc(-c3cc([C@]4(O)CCN(C)C4=O)on3)c2)nc1C(N)=O [Example 144, (R)-2-(3-(5-(3-Hydroxy-1-methyl-2-oxopyrrolidin-3-yl)isoxazol-3-yl)phenyl)-5-((4-methoxy-1-methyl-1H-pyrazol-3-yl)amino)pyrimidine-4-carboxamide]	< 100 nM	< 100 nM
CN1CC[C@@](O)(c2cc(-c3cccc(-c4ncc(Nc5cnn(CC(F)(F)F)c5)c(C(N)=O)n4)c3)no2)C1=O [Example 145, (R)-2-(3-(5-(3-Hydroxy-1-methyl-2-oxopyrrolidin-3-yl)isoxazol-3-yl)phenyl)-5-((1-(2,2,2-trifluoroethyl)-1H-pyrazol-4-yl)amino)pyrimidine-4-carboxamide]	< 100 nM	< 100 nM
CN1CC[C@@](O)(c2cc(-c3cccc(-c4nccc(C(N)=O)n4)c3)no2)C1=O [Example 146, (R)-2-(3-(5-(3-hydroxy-1-methyl-2-oxopyrrolidin-3-yl)isoxazol-3-yl)phenyl)pyrimidine-4-carboxamide]	> 501 nM	< 100 nM
CN1CC[C@@](O)(c2cc(-c3cccc(-c4cncc(C(N)=O)n4)c3)no2)C1=O [Example 147, (R)-6-(3-(5-(3-Hydroxy-1-methyl-2-oxopyrrolidin-3-yl)isoxazol-3-yl)phenyl)pyrazine-2-carboxamide]	> 501 nM	< 100 nM
CN1CC[C@@](O)(c2cc(-c3cccc(-c4cccc(C(N)=O)n4)c3)no2)C1=O [Example 148, (R)-6-(3-(5-(3-Hydroxy-1-methyl-2-oxopyrrolidin-3-yl)isoxazol-3-yl)phenyl)picolinamide]	> 501 nM	< 100 nM
CN1CC[C@](O)(c2cc(-c3cccc(-c4cccc(C(N)=O)n4)c3)no2)C1=O [Example 149, (S)-6-(3-(5-(3-Hydroxy-1-methyl-2-oxopyrrolidin-3-yl)isoxazol-3-yl)phenyl)picolinamide]	> 501 nM	> 501 nM
Cc1ccc(-c2cccc(C(N)=O)n2)cc1-c1cc([C@]2(O)CCN(C)C2=O)on1 [Example 150, (R)-6-(3-(5-(3-Hydroxy-1-methyl-2-oxopyrrolidin-3-yl)isoxazol-3-yl)-4-methylphenyl)picolinamide]	> 501 nM	> 501 nM
Cc1ccc(-c2cc([C@]3(O)CCN(C)C3=O)on2)cc1-c1cccc(C(N)=O)n1 [Example 151, (R)-6-(5-(5-(3-Hydroxy-1-methyl-2-oxopyrrolidin-3-yl)isoxazol-3-yl)-2-methylphenyl)picolinamide]	> 501 nM	> 501 nM
Cc1cc(-c2cc([C@]3(O)CCN(C)C3=O)on2)cc(-c2cccc(C(N)=O)n2)c1 [Example 152, (R)-6-(3-(5-(3-Hydroxy-1-methyl-2-oxopyrrolidin-3-yl)isoxazol-3-yl)-5-methylphenyl)picolinamide]	> 501 nM	< 100 nM
COc1cc(-c2cc([C@]3(O)CCN(C)C3=O)on2)cc(-c2cccc(C(N)=O)n2)c1 [Example 153, (R)-6-(3-(5-(3-Hydroxy-1-methyl-2-oxopyrrolidin-3-yl)isoxazol-3-yl)-5-methoxyphenyl)picolinamide]	> 501 nM	< 100 nM
Cc1ccc(-c2cccc(-c3cc([C@]4(O)CCN(C)C4=O)on3)c2)nc1C(N)=O [Example 154, (R)-6-(3-(5-(3-Hydroxy-1-methyl-2-oxopyrrolidin-3-yl)isoxazol-3-yl)phenyl)-3-methylpicolinamide]	> 501 nM	< 100 nM
Cc1cc(C(N)=O)nc(-c2cccc(-c3cc([C@]4(O)CCN(C)C4=O)on3)c2)c1 [Example 155, (R)-6-(3-(5-(3-Hydroxy-1-methyl-2-oxopyrrolidin-3-yl)isoxazol-3-yl)phenyl)-4-methylpicolinamide]	100 to 500 nM	< 100 nM
Cc1ccc(C(N)=O)nc1-c1cccc(-c2cc([C@]3(O)CCN(C)C3=O)on2)c1 [Example 156, (R)-6-(3-(5-(3-hydroxy-1-methyl-2-oxopyrrolidin-3-yl)isoxazol-3-yl)phenyl)-5-methylpicolinamide]	> 501 nM	100 to 500 nM
CN1CC[C@@](O)(c2cc(-c3cccc(-c4cccc(C(N)=O)c4)c3)no2)C1=O [Example 157, (R)-3′-(5-(3-Hydroxy-1-methyl-2-oxopyrrolidin-3-yl)isoxazol-3-yl)-[1,1′-biphenyl]-3-carboxamide]	> 501 nM	> 501 nM
CN1CC[C@@](O)(c2cc(-c3cccc(-c4nc(C(N)=O)c5ccc(F)cc5n4)c3)no2)C1=O [Example 158, (R)-7-Fluoro-2-(3-(5-(3-hydroxy-1-methyl-2-oxopyrrolidin-3-yl)isoxazol-3-yl)phenyl)quinazoline-4-carboxamide]	> 501 nM	< 100 nM
Cc1nc(N)c2nc(-c3ccc(-c4cc([C@]5(O)CCN(C)C5=O)on4)o3)ccc2n1 [Example 159, (R)-3-(3-(5-(4-Amino-2-methylpyrido[3,2-d]pyrimidin-6-yl)furan-2-yl)isoxazol-5-yl)-3-hydroxy-1-methylpyrrolidin-2-one]	100 to 500 nM	< 100 nM
CN1CC[C@@](O)(c2cc(-c3cccc(-c4nc(C(N)=O)c5ccc(F)cc5n4)c3)on2)C1=O [Example 160, (R)-7-Fluoro-2-(3-(3-(3-hydroxy-1-methyl-2-oxopyrrolidin-3-yl)isoxazol-5-yl)phenyl)quinazoline-4-carboxamide]	> 501 nM	< 100 nM
CN1CC[C@@](O)(c2cc(-c3cccc(-c4ccnc(C(N)=O)n4)c3)no2)C1=O [Example 162, (R)-4-(3-(5-(3-Hydroxy-1-methyl-2-oxopyrrolidin-3-yl)isoxazol-3-yl)phenyl)pyrimidine-2-carboxamide]	> 501 nM	< 100 nM
CN1CC[C@@](O)(c2cc(-c3cccc(-c4c[nH]c5nccnc45)c3)no2)C1=O [Example 163, (R)-3-(3-(3-(5H-Pyrrolo[2,3-b]pyrazin-7-yl)phenyl)isoxazol-5-yl)-3-hydroxy-1-methylpyrrolidin-2-one]	> 501 nM	< 100 nM
CN1CC[C@@](O)(c2cc(-c3ccc(-c4cccc(C(N)=O)n4)o3)no2)C1=O [Example 164, (R)-6-(5-(5-(3-Hydroxy-1-methyl-2-oxopyrrolidin-3-yl)isoxazol-3-yl)furan-2-yl)picolinamide]	> 501 nM	< 100 nM
CN1CC[C@@](O)(c2cc(-c3cccc(-n4nc(C(N)=O)c5ccccc54)c3)no2)C1=O [Example 166, (R)-1-(3-(5-(3-hydroxy-1-methyl-2-oxopyrrolidin-3-yl)isoxazol-3-yl)phenyl)-1H-indazole-3-carboxamide]	100 to 500 nM	< 100 nM
CN1CC[C@@](O)(c2cc(-c3ccnc(-c4cccc(C(N)=O)n4)c3)no2)C1=O [Example 168, (R)-4′-(5-(3-Hydroxy-1-methyl-2-oxopyrrolidin-3-yl)isoxazol-3-yl)-[2,2′-bipyridine]-6-carboxamide]	> 501 nM	< 100 nM
CN1CC[C@@](O)(c2cc(-c3ccnc(-c4ccc(N)c(C(N)=O)n4)c3)no2)C1=O [Example 169, (R)-5-Amino-4′-(5-(3-hydroxy-1-methyl-2-oxopyrrolidin-3-yl)isoxazol-3-yl)-[2,2′-bipyridine]-6-carboxamide]	< 100 nM	< 100 nM
Cc1nc(N)c2nc(-c3cc(-c4cc([C@]5(O)CCN(C)C5=O)on4)ccn3)ccc2n1 [Example 170, (R)-3-(3-(2-(4-Amino-2-methylpyrido[3,2-d]pyrimidin-6-yl)pyridin-4-yl)isoxazol-5-yl)-3-hydroxy-1-methylpyrrolidin-2-one]	> 501 nM	< 100 nM
CN1CC[C@@](O)(c2cc(-c3cccc(-c4nc5c(c(C(N)=O)n4)[C@H]4CC[C@@H](C5)O4)c3)no2)C1=O [Example 171, (5R,8S)-2-(3-(5-((R)-3-Hydroxy-1-methyl-2-oxopyrrolidin-3-yl)isoxazol-3-yl)phenyl)-6,7,8,9-tetrahydro-5H-5,8-epoxycyclohepta[d]pyrimidine-4-carboxamide]	> 501 nM	< 100 nM
CN1CC[C@](O)(c2cc(-c3cccc(-c4nc5c(c(C(N)=O)n4)[C@H]4CC[C@@H](C5)O4)c3)no2)C1=O [Example 172, (5R,8S)-2-(3-(5-((S)-3-Hydroxy-1-methyl-2-oxopyrrolidin-3-yl)isoxazol-3-yl)phenyl)-6,7,8,9-tetrahydro-5H-5,8-epoxycyclohepta[d]pyrimidine-4-carboxamide]	> 501 nM	> 501 nM
CN1CC[C@@](O)(c2cc(-c3cccc(-c4nc5c(c(C(N)=O)n4)[C@H]4CC[C@@H](C5)O4)c3)[nH]n2)C1=O [Example 173, (5R,8S)-2-(3-(5-((R)-3-Hydroxy-1-methyl-2-oxopyrrolidin-3-yl)-1H-pyrazol-3-yl)phenyl)-6,7,8,9-tetrahydro-5H-5,8-epoxycyclohepta[d]pyrimidine-4-carboxamide]	> 501 nM	< 100 nM
Cc1ccc(-c2cc([C@]3(O)CCN(C)C3=O)no2)cc1-c1nc2c(N)ncnc2s1 [Example 175, (R)-3-(5-(3-(7-Aminothiazolo[5,4-d]pyrimidin-2-yl)-4-methylphenyl)isoxazol-3-yl)-3-hydroxy-1-methylpyrrolidin-2-one]	> 501 nM	< 100 nM
